The subject of this data set is CCRIS mutagenicity, Ames/micronucleus/aberration tests. Nature of the data set: CCRIS mutagenicity studies.
The mark [1] stands for this setting: Test System: AMES SALMONELLA TYPHIMURIUM, Strain/Indicator: TA98, Metabolic Activation: NONE, Method: STANDARD PLATE.
Where [2] appears, read: Test System: AMES SALMONELLA TYPHIMURIUM, Strain/Indicator: TA98, Metabolic Activation: RAT, LIVER, S-9, AROCLOR 1254, Method: STANDARD PLATE.
Setting [3] is: Test System: AMES SALMONELLA TYPHIMURIUM, Strain/Indicator: TA100, Metabolic Activation: NONE, Method: STANDARD PLATE.
[4] abbreviates: Test System: AMES SALMONELLA TYPHIMURIUM, Strain/Indicator: TA100, Metabolic Activation: RAT, LIVER, S-9, AROCLOR 1254, Method: STANDARD PLATE.
Setting [5] is: Test System: AMES SALMONELLA TYPHIMURIUM, Strain/Indicator: TA1535, Metabolic Activation: NONE, Method: STANDARD PLATE.
The mark [6] stands for this setting: Test System: AMES SALMONELLA TYPHIMURIUM, Strain/Indicator: TA1535, Metabolic Activation: RAT, LIVER, S-9, AROCLOR 1254, Method: STANDARD PLATE.
Where [7] appears, read: Test System: AMES SALMONELLA TYPHIMURIUM, Strain/Indicator: TA1538, Metabolic Activation: NONE, Method: STANDARD PLATE.
Where [8] appears, read: Test System: AMES SALMONELLA TYPHIMURIUM, Strain/Indicator: TA1538, Metabolic Activation: RAT, LIVER, S-9, AROCLOR 1254, Method: STANDARD PLATE.
[9] abbreviates: Test System: AMES SALMONELLA TYPHIMURIUM, Strain/Indicator: TA1537, Metabolic Activation: NONE, Method: STANDARD PLATE.
The mark [10] stands for this setting: Test System: UDS RAT HEPATOCYTES, Strain/Indicator: THY INCORP, Metabolic Activation: NONE, Method: AUTORADIOGRAPHY

The source made the active and inactive calls. The rule behind the calls is not given here.

Take `O=C(O)C[C@H](NC(=O)COc1cc(Cl)c(Cl)cc1Cl)C(=O)O`: the mutagenic call (Test System: AMES SALMONELLA TYPHIMURIUM, Strain/Indicator: TA97, Metabolic Activation: NONE, Method: STANDARD PLATE) was “inactive; negative”; the mutagenic call (Test System: AMES SALMONELLA TYPHIMURIUM, Strain/Indicator: TA97, Metabolic Activation: RAT, LIVER, S-9, AROCLOR 1254, Method: STANDARD PLATE) is “inactive; negative”; the mutagenic call under setting [1] was “inactive; negative”; the mutagenic call under setting [2] was “inactive; negative”; the mutagenic call under setting [3] is “inactive; negative”; the mutagenic call under setting [4] is “inactive; negative”. The mutagenic call is “inactive; negative” under setting [5], “inactive; negative” under setting [6], “inactive; negative” under setting [7] and “inactive; negative” under setting [8].

As for `C/C=C1\CC2C=CC1C2` (stereo unspecified), the mutagenic call was “inactive; negative” (Test System: AMES SALMONELLA TYPHIMURIUM, Strain/Indicator: TA98, Metabolic Activation: HAMSTER, LIVER, S-9, AROCLOR 1254 (10%), Method: PREINCUBATION); “inactive; negative” (Test System: AMES SALMONELLA TYPHIMURIUM, Strain/Indicator: TA98, Metabolic Activation: NONE, Method: PREINCUBATION); “inactive; negative” under setting [1]; “inactive; negative” (Test System: AMES SALMONELLA TYPHIMURIUM, Strain/Indicator: TA98, Metabolic Activation: RAT LIVER S-9, AROCLOR 1254, Method: STANDARD PLATE); “inactive; negative” (Test System: AMES SALMONELLA TYPHIMURIUM, Strain/Indicator: TA98, Metabolic Activation: RAT, LIVER, S-9, AROCLOR 1254 (10%), Method: PREINCUBATION); “inactive; negative” (Test System: AMES SALMONELLA TYPHIMURIUM, Strain/Indicator: TA100, Metabolic Activation: HAMSTER, LIVER, S-9, AROCLOR 1254 (10%), Method: PREINCUBATION). The mutagenic call (Test System: AMES SALMONELLA TYPHIMURIUM, Strain/Indicator: TA100, Metabolic Activation: NONE, Method: PREINCUBATION) was “inactive; negative”; the mutagenic call under setting [3] was “inactive; negative”; the mutagenic call (Test System: AMES SALMONELLA TYPHIMURIUM, Strain/Indicator: TA100, Metabolic Activation: RAT LIVER S-9, AROCLOR 1254, Method: STANDARD PLATE) was “inactive; negative”; the mutagenic call (Test System: AMES SALMONELLA TYPHIMURIUM, Strain/Indicator: TA100, Metabolic Activation: RAT, LIVER, S-9, AROCLOR 1254 (10%), Method: PREINCUBATION) is “inactive; negative”; the mutagenic call (Test System: AMES SALMONELLA TYPHIMURIUM, Strain/Indicator: TA1535, Metabolic Activation: HAMSTER, LIVER, S-9, AROCLOR 1254 (10%), Method: PREINCUBATION) was “inactive; negative”; the mutagenic call (Test System: AMES SALMONELLA TYPHIMURIUM, Strain/Indicator: TA1535, Metabolic Activation: NONE, Method: PREINCUBATION) was “inactive; negative”. Further, the mutagenic call is “inactive; negative” under setting [5]; “inactive; negative” (Test System: AMES SALMONELLA TYPHIMURIUM, Strain/Indicator: TA1535, Metabolic Activation: RAT LIVER S-9, AROCLOR 1254, Method: STANDARD PLATE); “inactive; negative” (Test System: AMES SALMONELLA TYPHIMURIUM, Strain/Indicator: TA1535, Metabolic Activation: RAT, LIVER, S-9, AROCLOR 1254 (10%), Method: PREINCUBATION); “inactive; negative” (Test System: AMES SALMONELLA TYPHIMURIUM, Strain/Indicator: TA1537, Metabolic Activation: HAMSTER, LIVER, S-9, AROCLOR 1254 (10%), Method: PREINCUBATION); “inactive; negative” (Test System: AMES SALMONELLA TYPHIMURIUM, Strain/Indicator: TA1537, Metabolic Activation: NONE, Method: PREINCUBATION); “inactive; negative” under setting [9]. Besides, the mutagenic call was “inactive; negative” (Test System: AMES SALMONELLA TYPHIMURIUM, Strain/Indicator: TA1537, Metabolic Activation: RAT LIVER S-9, AROCLOR 1254, Method: STANDARD PLATE); “inactive; negative” (Test System: AMES SALMONELLA TYPHIMURIUM, Strain/Indicator: TA1537, Metabolic Activation: RAT, LIVER, S-9, AROCLOR 1254 (10%), Method: PREINCUBATION); “inactive; negative” under setting [7]; “inactive; negative” (Test System: AMES SALMONELLA TYPHIMURIUM, Strain/Indicator: TA1538, Metabolic Activation: RAT LIVER S-9, AROCLOR 1254, Method: STANDARD PLATE); “inactive; negative” (Test System: CHINESE HAMSTER OVARY, Strain/Indicator: CHO-K1-BH4 (HGPRT)/6-THIOGUANINE, Metabolic Activation: NONE); “inactive; negative” (Test System: CHINESE HAMSTER OVARY, Strain/Indicator: CHO-K1-BH4 (HGPRT)/6-THIOGUANINE, Metabolic Activation: RAT LIVER S-9, AROCLOR 1254).

On to `C[C@@H]1C[C@@]2(O[C@H]2C)C(=O)O[C@@H]2CCN3CC=C(COC(=O)[C@]1(C)O)[C@H]23`, for which the mutagenic call under setting [10] is “active; positive”.

Turning to `CCOC(=O)NNc1nncc2ccccc12`, the mutagenic call by setting is: under setting [1], “inactive; negative”; under setting [2], “inactive; negative”; under setting [4], “inactive; negative”; (Test System: AMES SALMONELLA TYPHIMURIUM, Strain/Indicator: TA100, Metabolic Activation: RAT, LIVER, S-9, PHENOBARBITAL, Method: STANDARD PLATE) “active; positive”; under setting [5], “inactive; negative”; under setting [6], “inactive; negative”. Further, the mutagenic call is, setting by setting: under setting [9], “inactive; negative”; (Test System: AMES SALMONELLA TYPHIMURIUM, Strain/Indicator: TA1537, Metabolic Activation: RAT, LIVER, S-9, AROCLOR 1254, Method: STANDARD PLATE) “inactive; negative”; under setting [7], “inactive; negative”; under setting [8], “inactive; negative”; under setting [10], “inactive; negative”.

Source of the values: PubChem BioAssay AID1259407 (Chemical Carcinogenesis Research Information System (CCRIS), 2018).
